Data reported in patent US9346852B2, “Substituted adipic acid amides and uses thereof” (Bristol-Myers Scuibb Company, priority 2011, dated 2016).

Each compound was assayed against T1, human Y4 stable CHO clonal cells (Homo sapiens, UniProt P50391) (assay: NPY4 cAMP HTRF Agonist Assay). Conditions: inhibitory cAMP assay, Gi activation by Y4 agonism, forskolin and IBMX, 30 minutes at room temperature.
T1 construct: expressed in transfected cells
T1 sequence (P50391 whole entry): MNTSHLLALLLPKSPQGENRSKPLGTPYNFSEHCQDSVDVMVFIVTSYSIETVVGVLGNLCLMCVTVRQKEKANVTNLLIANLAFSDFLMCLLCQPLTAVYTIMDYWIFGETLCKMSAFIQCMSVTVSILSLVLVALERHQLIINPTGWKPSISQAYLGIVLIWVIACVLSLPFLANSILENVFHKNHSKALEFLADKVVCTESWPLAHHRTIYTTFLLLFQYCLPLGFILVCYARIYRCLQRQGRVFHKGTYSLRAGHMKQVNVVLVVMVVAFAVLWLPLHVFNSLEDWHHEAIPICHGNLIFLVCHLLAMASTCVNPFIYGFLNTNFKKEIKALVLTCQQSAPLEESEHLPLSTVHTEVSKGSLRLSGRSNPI
Assay type: cell-based
Protocol: NPY4 cAMP HTRF Agonist Assay
The functionality of the compound at Y4 receptor was analyzed using an inhibitory cAMP assay (CISBIO, HTRF cAMP kit #62AM4PEC) to measure the Gi activation by Y4 agonism.
The human Y4 stable CHO clonal cells were maintained in culture medium (F-12 containing 10% Fetal Bovine Serum, […] GENETICIN®, […] Zeocin). Before the experiment, 5 μL of 1 uM Forskolin (Sigma, # F6886) and 100 uM IBMX (Sigma, # I5879) in PBS buffer were added into 384-well plates (PE, Proxi-plate) that were pre-dotted with […] compounds. The cells were removed from the flasks by Cellstripper, counted and adjusted to […] in PBS buffer, and added 5 μL/well (5000 cells/well) into the above 384-well plates. The cells were then covered and incubated for 30 minutes at room temperature. After incubation, 5 μL/well of D2-conjugate in HTRF lysis buffer was first added, followed by adding 5 μL/well of anti-cAMP Cryptate in HTRF lysis buffer. The plates were incubated for another 1 hour at room temperature and read on the EnVision Multilabel Plate Reader.
Compounds described herein were tested in the above assay.
`COC(=O)[C@@H]1CCC[C@@H]2SCC[C@H](NC(=O)[C@H](CC[C@H](Cc3ccccc3)C(=O)N[C@H]3CCS[C@H]4CCC[C@@H](C(=O)OC)N4C3=O)Cc3ccccc3)C(=O)N21` [Example 1, Dimethyl (4S,7S,10aS,4′S,7′S,10a′S)-4,4′-(((2R,5R)-2,5-dibenzyl-1,6-dioxo-1,6-hexanediyl)diimino)bis(5-oxooctahydro-7H-pyrido[2,1-b][1,3]thiazepine-7-carboxylate)] gave an EC50 of 17 nM.
`COC(=O)[C@@H]1CCC[C@@H]2SCC[C@H](NC(=O)[C@H](CC[C@H](CC(C)C)C(=O)N[C@H]3CCS[C@H]4CCC[C@@H](C(=O)OC)N4C3=O)Cc3ccccc3)C(=O)N21` [Example 4] showed an EC50 of 130 nM.
In the case of `COC(=O)[C@@H]1CCC[C@@H]2CCC[C@H](NC(=O)[C@H](CC[C@H](Cc3ccccc3)C(=O)N[C@H]3CCC[C@H]4CCC[C@@H](C(=O)OC)N4C3=O)Cc3ccccc3)C(=O)N21` [Example 5, Dimethyl (4S,7S,10aS,4′S,7′S,10a′S)-7,7′-(((2R,5R)-2,5-dibenzyl-1,6-dioxo-1,6-hexanediyl)diimino)bis(6-oxodecahydropyrido[1,2-a]azepine-4-carboxylate)], the EC50 is reported as 200 nM.
In the case of `COC(=O)[C@@H]1CCC[C@@H]2SCC[C@H](NC(=O)[C@H](CC[C@H](Cc3ccc(O)cc3)C(=O)N[C@H]3CCS[C@H]4CCC[C@@H](C(=O)OC)N4C3=O)Cc3ccc(O)cc3)C(=O)N21` [Example 9, Dimethyl (4S,7S,10aS,4′S,7′S,10a′S)-4,4′-(((2R,5R)-2,5-bis(4-hydroxybenzyl)-1,6-dioxo-1,6-hexanediyl)diimino)bis(5-oxooctahydro-7H-pyrido[2,1-b][1,3]thiazepine-7-carboxylate)], the EC50 is reported as 14 nM.
`COC(=O)[C@@H]1CCC[C@@H]2SCC[C@H](NC(=O)[C@H](CC[C@H](Cc3ccccc3)C(=O)N[C@@H]3C(=O)N4CCC[C@@H]4SC3(C)C)Cc3ccccc3)C(=O)N21` [Example 12, (4S,7S,10aS)-Methyl 4-((2R,5R)-2,5-dibenzyl-6-((3R,8aS)-2,2-dimethyl-4-oxohexahydro-2H-pyrrolo[2,1-b][1,3]thiazin-3-ylamino)-6-oxohexanamido)-5-oxooctahydro-2H-pyrido[2,1-b][1,3]thiazepine-7-carboxylate] showed an EC50 of 60 nM.
With `COC(=O)[C@@H]1CCCN2CCC[C@H](NC(=O)[C@H](CC[C@H](Cc3ccccc3)C(=O)N[C@H]3CCCN4CCC[C@@H](C(=O)OC)N4C3=O)Cc3ccccc3)C(=O)N12` [Example 18, Dimethyl (1S,9S,1′S,9′S)-9,9′-(((2R,5R)-2,5-dibenzyl-1,6-dioxo-1,6-hexanediyl)diimino)bis(10-oxooctahydro-6H-pyridazino[1,2-a][1,2]diazepine-1-carboxylate)] the EC50 was 155 nM.
`COC(=O)[C@@H]1CCC[C@@H]2SCC[C@H](NC(=O)[C@H](CC[C@H](Cc3ccccc3)C(=O)N[C@H]3CCS[C@H]4CCCCN4C3=O)Cc3ccccc3)C(=O)N21` [Example 30, (4S,7S,10aS)-Methyl 4-((2R,5R)-2,5-dibenzyl-6-oxo-6-((4S,10aS)-5-oxooctahydro-2H-pyrido[2,1-b][1,3]thiazepin-4-ylamino)hexanamido)-5-oxooctahydro-2H-pyrido[2,1-b][1,3]thiazepine-7-carboxylate] was tested, and the EC50 was 230 nM.
`COC(=O)[C@@H]1CCC[C@@H]2SCC[C@H](NC(=O)[C@H](CC[C@H](CC#N)C(=O)N[C@H]3CCS[C@H]4CCC[C@@H](C(=O)OC)N4C3=O)Cc3ccccc3)C(=O)N21` [Example 32, Dimethyl (4S,7S,10aS,4′S,7′S,10a′S)-4,4′-(((2R,5R)-2-benzyl-5-(cyanomethyl)-1,6-dioxo-1,6-hexanediyl)diimino)bis(5-oxooctahydro-7H-pyrido[2,1-b][1,3]thiazepine-7-carboxylate)] showed an EC50 of 24 nM.
For `COC(=O)[C@@H]1CCC[C@@H]2SCC[C@H](NC(=O)[C@H](CC[C@H](Cc3ccc(O)cc3)C(=O)N[C@H]3CCS[C@H]4CCC[C@@H](C(=O)OC)N4C3=O)Cc3ccccc3)C(=O)N21` [Example 38, Dimethyl (4S,7S,10aS,4′S,7′S,10a′S)-4,4′-(((2R,5R)-2-benzyl-5-(4-hydroxybenzyl)-1,6-dioxo-1,6-hexanediyl)diimino)bis(5-oxooctahydro-7H-pyrido[2,1-b][1,3]thiazepine-7-carboxylate)], the EC50 was 5 nM.
In the case of `COC(=O)[C@@H]1CCC[C@@H]2SCC[C@H](NC(=O)[C@H](CC[C@H](CC3CCCCC3)C(=O)N[C@H]3CCS[C@H]4CCC[C@@H](C(=O)OC)N4C3=O)Cc3cccc(Cl)c3)C(=O)N21` [Example 43, Dimethyl (4S,7S,10aS,4′S,7′S,10a′S)-4,4′-(((2R,5R)-2-(3-chlorobenzyl)-5-(cyclohexylmethyl)-1,6-dioxo-1,6-hexanediyl)diimino)bis(5-oxooctahydro-7H-pyrido[2,1-b][1,3]thiazepine-7-carboxylate)], the EC50 is reported as 835 nM.
With `O=C(N[C@H]1CCCCN(c2ccccc2)C1=O)[C@H](CC[C@H](Cc1ccccc1)C(=O)N[C@H]1CCS[C@H]2CCCCN2C1=O)Cc1ccccc1` [Example 59, (2R,5R)-2,5-Dibenzyl-N1-((S)-2-oxo-1-phenylazepan-3-yl)-N6-((4S,10aS)-5-oxooctahydro-2H-pyrido[2,1-b][1,3]thiazepin-4-yl)hexanediamide] the EC50 was 270 nM.
`N#C[C@@H]1CCC[C@@H]2SCC[C@H](NC(=O)[C@H](CC[C@H](Cc3ccccc3)C(=O)N[C@H]3CCCCN(c4ccccc4)C3=O)Cc3ccccc3)C(=O)N12` [Example 72, (2R,5R)-2,5-Dibenzyl-N1-((4S,7S,10aS)-7-cyano-5-oxooctahydro-2H-pyrido[2,1-b][1,3]thiazepin-4-yl)-N6-((S)-2-oxo-1-phenylazepan-3-yl)hexanediamide] was tested, and the EC50 was 55 nM.
Work on `COC[C@@H]1CCC[C@@H]2SCC[C@H](NC(=O)[C@H](CC[C@H](Cc3ccccc3)C(=O)N[C@H]3CCCCN(c4ccccc4)C3=O)Cc3ccccc3)C(=O)N12` [Example 74, (2R,5R)-2,5-Dibenzyl-N1-((4S,7S,10aS)-7-(methoxymethyl)-5-oxooctahydro-2H-pyrido[2,1-b][1,3]thiazepin-4-yl)-N6-((S)-2-oxo-1-phenylazepan-3-yl)hexanediamide] yielded an EC50 of 470 nM.
With `COc1ccccc1N1CCCC[C@H](NC(=O)[C@H](CC[C@H](Cc2ccccc2)C(=O)N[C@H]2CCS[C@H]3CCC[C@@H](C(F)(F)F)N3C2=O)Cc2ccccc2)C1=O` [Example 79, (2R,5R)-2,5-Dibenzyl-N1-((S)-1-(2-methoxyphenyl)-2-oxoazepan-3-yl)-N6-((4S,7S,10aS)-5-oxo-7-(trifluoromethyl)octahydro-2H-pyrido[2,1-b][1,3]thiazepin-4-yl)hexanediamide] the EC50 was 18 nM.
With `Cc1ccccc1N1CCCC[C@H](NC(=O)[C@H](CC[C@H](Cc2ccccc2)C(=O)N[C@H]2CCS[C@H]3CC[C@@H](C(F)(F)F)CN3C2=O)Cc2ccccc2)C1=O` [Example 90, (2R,5R)-2,5-Dibenzyl-N1-((S)-2-oxo-1-o-tolylazepan-3-yl)-N6-((4S,8R,10aS)-5-oxo-8-(trifluoromethyl)octahydro-2H-pyrido[2,1-b][1,3]thiazepin-4-yl)hexanediamide] the EC50 was 270 nM.
`COc1ccccc1N1CCCC[C@H](NC(=O)[C@H](CC[C@H](Cc2ccccc2)C(=O)N[C@H]2CCS[C@H]3CCC[C@@H](C#N)N3C2=O)Cc2ccccc2)C1=O` [Example 96, (2R,5R)-2,5-Dibenzyl-N1-((4S,7S,10aS)-7-cyano-5-oxooctahydro-2H-pyrido[2,1-b][1,3]thiazepin-4-yl)-N6-((S)-1-(2-methoxyphenyl)-2-oxoazepan-3-yl)hexanediamide] showed an EC50 of 7 nM.
`CCC[C@@H](CC[C@H](Cc1cccc(F)c1)C(=O)N[C@H]1CCS[C@H]2CCC[C@@H](C(=O)OC)N2C1=O)C(=O)N[C@H]1CCS[C@H]2CCC[C@@H](C(=O)OC)N2C1=O` [Example 100] showed an EC50 of 210 nM.
